Results from patent US20250129078A1, “ERBB2 INHIBITORS” (Cogent Biosciences, Inc., priority 2023, published 2025).

Key:
ErbB2 V777L = ErbB2 V777L (Homo sapiens (Human), UniProt P04626, V777L); experiment: ErbB enzyme assay (CisBio HTRF-KinEASE-TK), ErbB2 V777L; assay type: biochemical
Description: In vitro enzyme assays based on CisBio HTRF-KinEASE-TK technology were used to determine compound potencies. […] After another 1 h incubation at ambient temperature, the extent of substrate phosphorylation was determined using a PerkinElmer EnVision multimode plate reader via time-resolved fluorescence dual wavelength detection. The percent of control (POC) was calculated using the ratio of emission at […] to the emission at 620 nm. One hundred POC was determined using DMSO only controls (no test compounds present) and zero POC was determined using pre-quenched controls reactions. A 4-parameter logistic equation was fit to the POC values as a function of the test compound concentration and the IC50 value was determined as the point where the curve crossed 50 POC.

EGFR WT = EGFR WT (Homo sapiens (Human), UniProt P00533); experiment: ErbB enzyme assay (CisBio HTRF-KinEASE-TK), EGFR WT; assay type: biochemical; conditions: ATP at Km (25 μM), 1 h incubation
Chain of EGFR WT (P00533 25-1210): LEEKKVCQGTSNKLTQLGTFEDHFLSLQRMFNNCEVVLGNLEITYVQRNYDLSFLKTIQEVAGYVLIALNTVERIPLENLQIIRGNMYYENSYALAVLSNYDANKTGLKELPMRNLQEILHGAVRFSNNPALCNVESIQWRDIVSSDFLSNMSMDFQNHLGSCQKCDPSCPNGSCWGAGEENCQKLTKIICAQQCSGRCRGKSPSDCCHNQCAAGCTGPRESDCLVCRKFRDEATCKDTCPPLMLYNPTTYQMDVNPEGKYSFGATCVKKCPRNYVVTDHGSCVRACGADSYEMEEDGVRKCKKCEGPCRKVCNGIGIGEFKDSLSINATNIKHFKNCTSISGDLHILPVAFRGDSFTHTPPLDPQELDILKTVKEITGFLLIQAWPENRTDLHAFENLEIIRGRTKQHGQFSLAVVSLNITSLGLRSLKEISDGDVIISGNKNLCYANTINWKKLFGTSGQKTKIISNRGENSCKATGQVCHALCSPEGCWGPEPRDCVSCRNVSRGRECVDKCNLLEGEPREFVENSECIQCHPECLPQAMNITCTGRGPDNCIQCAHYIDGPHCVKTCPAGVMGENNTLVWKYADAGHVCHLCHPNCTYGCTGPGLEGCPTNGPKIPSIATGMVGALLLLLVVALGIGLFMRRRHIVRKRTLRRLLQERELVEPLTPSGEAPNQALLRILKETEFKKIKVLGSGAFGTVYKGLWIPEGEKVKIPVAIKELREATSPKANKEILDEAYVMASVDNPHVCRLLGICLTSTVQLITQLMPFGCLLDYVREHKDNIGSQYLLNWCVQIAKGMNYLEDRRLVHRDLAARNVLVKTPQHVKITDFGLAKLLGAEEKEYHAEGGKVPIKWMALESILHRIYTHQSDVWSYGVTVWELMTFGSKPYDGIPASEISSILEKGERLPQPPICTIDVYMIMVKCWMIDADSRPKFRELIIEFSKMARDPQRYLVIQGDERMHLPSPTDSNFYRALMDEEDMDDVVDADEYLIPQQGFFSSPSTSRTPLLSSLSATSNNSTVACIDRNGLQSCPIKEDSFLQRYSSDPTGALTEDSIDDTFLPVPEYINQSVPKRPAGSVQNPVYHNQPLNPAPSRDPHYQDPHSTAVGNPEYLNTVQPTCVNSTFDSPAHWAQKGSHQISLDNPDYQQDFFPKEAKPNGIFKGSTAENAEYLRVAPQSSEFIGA
Procedure, shortened: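 Compounds, serially diluted three-fold, were incubated with enzyme for 1 h at ambient temperature. Detection reagents were then added for a further hour, and the 655/620 nm HTRF ratio was normalised to uninhibited and pre-quenched controls. IC50 was fitted with a four-parameter logistic model.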

Chain of ErbB2 V777L (P04626 23-1255 V777L): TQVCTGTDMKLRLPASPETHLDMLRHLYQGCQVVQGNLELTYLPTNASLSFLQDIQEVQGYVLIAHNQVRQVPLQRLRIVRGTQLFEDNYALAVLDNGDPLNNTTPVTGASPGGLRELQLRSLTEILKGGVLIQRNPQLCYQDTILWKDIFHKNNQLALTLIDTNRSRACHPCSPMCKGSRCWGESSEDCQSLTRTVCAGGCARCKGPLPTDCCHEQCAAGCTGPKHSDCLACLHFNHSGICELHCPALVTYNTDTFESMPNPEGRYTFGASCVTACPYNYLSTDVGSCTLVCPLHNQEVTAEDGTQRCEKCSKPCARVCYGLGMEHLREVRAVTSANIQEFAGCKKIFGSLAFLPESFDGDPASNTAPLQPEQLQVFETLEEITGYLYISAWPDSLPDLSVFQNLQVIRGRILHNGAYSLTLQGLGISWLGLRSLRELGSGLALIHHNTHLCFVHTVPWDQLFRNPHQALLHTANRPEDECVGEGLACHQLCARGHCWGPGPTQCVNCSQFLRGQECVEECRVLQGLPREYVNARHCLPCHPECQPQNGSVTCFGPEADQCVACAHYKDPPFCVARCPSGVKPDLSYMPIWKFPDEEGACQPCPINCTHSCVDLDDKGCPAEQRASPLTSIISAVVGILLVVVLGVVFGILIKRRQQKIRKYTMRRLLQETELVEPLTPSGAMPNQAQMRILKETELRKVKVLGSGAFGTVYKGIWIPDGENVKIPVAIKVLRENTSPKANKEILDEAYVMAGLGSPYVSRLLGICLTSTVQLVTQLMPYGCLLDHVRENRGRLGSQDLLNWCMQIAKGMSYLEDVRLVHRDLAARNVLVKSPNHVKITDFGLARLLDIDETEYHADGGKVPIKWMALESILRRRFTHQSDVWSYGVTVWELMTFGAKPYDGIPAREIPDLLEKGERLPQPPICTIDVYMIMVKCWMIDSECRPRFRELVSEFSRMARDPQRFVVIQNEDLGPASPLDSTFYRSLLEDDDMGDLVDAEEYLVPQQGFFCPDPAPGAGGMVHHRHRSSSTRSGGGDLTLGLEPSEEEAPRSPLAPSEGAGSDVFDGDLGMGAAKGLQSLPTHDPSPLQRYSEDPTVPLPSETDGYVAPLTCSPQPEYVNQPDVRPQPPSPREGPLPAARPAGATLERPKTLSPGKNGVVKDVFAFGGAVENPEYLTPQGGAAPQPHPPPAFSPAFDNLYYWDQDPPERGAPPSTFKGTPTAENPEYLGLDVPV

| SMILES | IC50 (ErbB2 V777L) [nM] | IC50 (EGFR WT) [nM] |
| --- | --- | --- |
| C=CC(=O)N1CCN(c2ncc3ncnc(Nc4cc(C)c(Oc5cc(F)c6c(c5)nnn6C)cc4OC)c3n2)C[C@H]1C [Compound 164, (R)-1-(4-(8-((4-((7-fluoro-1-methyl-1H-benzo[d][1,2,3]triazol-5-yl)oxy)-2-methoxy-5-methylphenyl)amino)pyrimido[5,4-d]pyrimidin-2-y1)-2-methylpiperazin-1-yl)prop-2-en-1-one] | 500 to 1000 | 500 to 1000 |
| C=CC(=O)N1CCN(c2ccc3ncnc(Nc4cc(C)c(Oc5ccc6c(c5)nnn6C)cc4OC(F)F)c3n2)CC1 [Compound 315, 1-(4-(4-((2-(difluoromethoxy)-5-methyl-4-((1-methyl-1H-benzo[d][1,2,3]triazol-5-yl)oxy)phenyl)amino)pyrido[3,2-d]pyrimidin-6-yl)piperazin-1-yl)prop-2-en-1-one] | 50 to 100 | 100 to 500 |
| C=CC(=O)NC1CCN(c2ccc3ncnc(Nc4ccc(Oc5ccc6c(c5)nnn6C)c(C)c4)c3n2)CC1 [Compound 304, N-(1-(4-((3-methyl-4-((1-methyl-1H-benzo[d][1,2,3]triazol-5-yl)oxy)phenyl)amino)pyrido[3,2-d]pyrimidin-6-yl)piperidin-4-yl)acrylamide] | 100 to 500 | 100 to 500 |
| C=CC(=O)N[C@@H]1CCCN(c2ccc3ncnc(Nc4ccc(Oc5ccc6c(c5)nnn6C)c(C)c4F)c3n2)C1 [Compound 260, (R)-N-(1-(4-((2-fluoro-3-methyl-4-((1-methyl-1H-benzo[d][1,2,3]triazol-5-yl)oxy)phenyl)amino)pyrido[3,2-d]pyrimidin-6-yl)piperidin-3-yl)acrylamide] | 100 to 500 | 100 to 500 |
| C=CC(=O)N1CCN(c2ncc3ncnc(Nc4ccc(Oc5ccc6c(c5)nnn6C)c(C)c4)c3n2)CC[C@H]1C [Compound 152, (R)-1-(7-methyl-4-(8-((3-methyl-4-((1-methyl-1H-benzo[d][1,2,3]triazol-5-yl)oxy)phenyl)amino)pyrimido[5,4-d]pyrimidin-2-y1)-1,4-diazepan-1-yl)prop-2-en-1-one] | 500 to 1000 | ≥ 1000 |
| C=C(C)C(=O)N1CCN(c2ncc3ncnc(Nc4ccc(Oc5ccc6c(c5)nnn6C)c(C)c4)c3n2)CC1 [Compound 35, 2-methyl-1-(4-(8-((3-methyl-4-((1-methyl-1H-benzo[d][1,2,3]triazol-5-yl)oxy)phenyl)amino)pyrimido [5,4-d]pyrimidin-2-y1)piperazin-1-yl)prop-2-en-1-one] | 500 to 1000 | ≥ 1000 |
| C=CC(=O)N1CCN(c2ccc3ncnc(Nc4ccc(Oc5ccc6c(c5)ncn6C(F)F)c(C)c4)c3n2)C[C@@H]1C1CC1 [Compound 278, (S)-1-(2-cyclopropyl-4-(4-((4-((1-(difluoromethyl)-1H-benzo[d]imidazol-5-yl)oxy)-3-methylphenyl)amino)pyrido[3,2-d]pyrimidin-6-yl)piperazin-1-yl)prop-2-en-1-one] | 100 to 500 | 500 to 1000 |
| C=CC(=O)N1CCN(c2ccc3ncnc(Nc4ccc(Oc5ccc6c(c5)nnn6C(F)F)c(C)c4)c3n2)C[C@H]1C [Compound 320, (R)-1-(4-(4-((4-((1-(difluoromethyl)-1H-benzo[d][1,2,3]triazol-5-yl)oxy)-3-methylphenyl)amino)pyrido[3,2-d]pyrimidin-6-yl)-2-methylpiperazin-1-yl)prop-2-en-1-one] | 100 to 500 | 100 to 500 |
| C=CC(=O)N1CCN(c2ncc3ncnc(Nc4cc(Cl)c(Oc5ccc6c(c5)nnn6C)cc4F)c3n2)CC1 [Compound 66, 1-(4-(8-((5-chloro-2-fluoro-4-((1-methyl-1H-benzo[d][1,2,3]triazol-5-yl)oxy)phenyl)amino)pyrimido[5,4-d]pyrimidin-2-yl)piperazin-1-yl)prop-2-en-1-one] | 50 to 100 | 100 to 500 |
| C=CC(=O)N1CCN(c2ccc3ncnc(Nc4ccc(Oc5ccc6c(c5)nnn6C)c(C)c4F)c3n2)C[C@H]1CC [Compound 258, (R)-1-(2-ethyl-4-(4-((2-fluoro-3-methyl-4-((1-methyl-1H-benzo[d][1,2,3]triazol-5-yl)oxy)phenyl)amino)pyrido[3,2-d]pyrimidin-6-yl)piperazin-1-yl)prop-2-en-1-one] | 100 to 500 | 100 to 500 |
| C=C1CCN([C@H]2CCN(c3ncc4ncnc(Nc5ccc(Oc6ccn7ncnc7c6)c(C)c5)c4n3)C2)C1=O [Compound 239, (S)-1′-(8-((4-([1,2,4]triazolo[1,5-a]pyridin-7-yloxy)-3-methylphenyl)amino)pyrimido[5,4-d]pyrimidin-2-yl)-3-methylene-[1,3′-bipyrrolidin]-2-one] | 50 to 100 | 500 to 1000 |
| C=CC(=O)N1CCN(c2ncc3ncnc(Nc4ccc(Oc5ccc6c(c5)nnn6C)c(C)c4)c3n2)C[C@H]1CC [Compound 119, (R)-1-(2-ethyl-4-(8-((3-methyl-4-((1-methyl-1H-benzo[d][1,2,3]triazol-5-yl)oxy)phenyl)amino)pyrimido[5,4-d]pyrimidin-2-y1)piperazin-1-yl)prop-2-en-1-one] | 100 to 500 | 500 to 1000 |
| C=CC(=O)N1CCN(c2ccc3ncnc(Nc4ccc(Oc5cc(F)c6c(c5)nnn6C)c(C)c4)c3n2)C[C@@H]1C1CC1 [Compound 290, (S)-1-(2-cyclopropyl-4-(4-((4-((7-fluoro-1-methyl-1H-benzo[d][1,2,3]triazol-5-yl)oxy)-3-methylphenyl)amino)pyrido[3,2-d]pyrimidin-6-yl)piperazin-1-yl)prop-2-en-1-one] | 100 to 500 | 500 to 1000 |
| C=CC(=O)N[C@H]1CCCCN(c2ccc3ncnc(Nc4ccc(Oc5ccc6c(c5)nnn6C)c(C)c4F)c3n2)C1 [Compound 291, (S)-N-(1-(4-((2-fluoro-3-methyl-4-((1-methyl-1H-benzo[d][1,2,3]triazol-5-yl)oxy)phenyl)amino)pyrido[3,2-d]pyrimidin-6-yl)azepan-3-yl)acrylamide] | 50 to 100 | 100 to 500 |
| C=CC(=O)N1CCN(c2ccc3ncnc(Nc4cc(C)c(Oc5ccc6c(c5)nnn6C)cc4OC(F)(F)F)c3n2)CC1(C)C [Compound 306, 1-(2,2-dimethyl-4-(4-((5-methyl-4-((1-methyl-1H-benzo[d][1,2,3]triazol-5-yl)oxy)-2-(trifluoromethoxy)phenyl)amino)py-rido[3,2-d]pyrimidin-6-yl)piperazin-1-yl)prop-2-en-1-one] | 100 to 500 | 100 to 500 |
| Cc1cc(Nc2ncnc3cnc(N4CCN(C(=O)/C=C/CF)CC4)nc23)ccc1Oc1ccc2c(c1)nnn2C [Compound 210, (E)-4-fluoro-1-(4-(8-((3-methyl-4-((1-methyl-1H-benzo[d][1,2,3]triazol-5-yl)oxy)phenyl)amino)pyrimido [5,4-d]pyrimidin-2-yl)piperazin-1-yl)but-2-en-1-one] | 50 to 100 | 100 to 500 |
| C=CC(=O)N1CCN(c2ncc3ncnc(Nc4ccc(Oc5ccc6c(c5)nnn6C)c(OC)c4F)c3n2)CC1 [Compound 45, 1-(4-(8-((2-fluoro-3-methoxy-4-((1-methyl-1H-benzo[d][1,2,3]triazol-5-yl)oxy)phenyl)amino)pyrimido [5,4-d]pyrimidin-2-yl)piperazin-1-yl)prop-2-en-1-one] | 100 to 500 | 100 to 500 |
| C=CC(=O)N1CCN(c2ncc3ncnc(Nc4ccc(Oc5ccc6c(c5)nnn6C)c(C)c4)c3n2)C[C@H]1C [Compound 1, (R)-1-(2-methyl-4-(8-((3-methyl-4-((1-methyl-1H-benzo[d][1,2,3]triazol-5-yl)oxy)phenyl)amino)pyrimido[5,4-d]pyrimidin-2-yl)piperazin-1-yl)prop-2-en-1-one] | 50 to 100 | 100 to 500 |
| C=CC(=O)N1CCN(c2ncc3ncnc(Nc4c(F)cc(Oc5ccc6c(c5)nnn6C)c(F)c4F)c3n2)CC1 [Compound 19, 1-(4-(8-((2,3,6-trifluoro-4-((1-methyl-1H-benzo[d][1,2,3]triazol-5-yl)oxy)phenyl)amino)pyrimido [5,4-d]pyrimidin-2-yl)piperazin-1-yl)prop-2-en-1-one] | 100 to 500 | 100 to 500 |
| C=CC(=O)N1CCN(c2ncc3ncnc(Nc4ccc(Oc5ccc6c(c5)nnn6C)c(C)c4F)c3n2)CC1(C)C [Compound 32, 1-(4-(8-((2-fluoro-3-methyl-4-((1-methyl-1H-benzo[d][1,2,3]triazol-5-yl)oxy)phenyl)amino)pyrimido [5,4-d]pyrimidin-2-yl)-2,2-dimethylpiperazin-1-yl)prop-2-en-1-one] | 100 to 500 | 100 to 500 |
| C=CC(=O)N[C@@H]1CCCCN(c2ncc3ncnc(Nc4ccc(Oc5ccc6c(c5)nnn6C)c(C)c4F)c3n2)C1 [Compound 170, (R)-N-(1-(8-((2-fluoro-3-methyl-4-((1-methyl-1H-benzo[d][1,2,3]triazol-5-yl)oxy)phenyl)amino)pyrimido[5,4-d]pyrimidin-2-yl)azepan-3-yl)acrylamide] | 100 to 500 | 100 to 500 |
| C=CC(=O)N1C[C@@H]2CCN(c3ccc4ncnc(Nc5ccc(Oc6ccc7c(c6)nnn7C)c(C)c5)c4n3)[C@@H]2C1 (stereo in doubt) [Compound 314, 1-(1-(4-((3-methyl-4-((1-methyl-1H-benzo[d][1,2,3]triazol-5-yl)oxy)phenyl)amino)pyrido[3,2-d]pyrimidin-6-yl)hexahydropyrrolo[3,4-b]pyrrol-5(1H)-y1)prop-2-en-1-one] | 50 to 100 | 100 to 500 |
| C=CC(=O)N[C@H]1CCCN(c2ccc3ncnc(Nc4ccc(Oc5ccc6c(c5)nnn6C)c(C)c4F)c3n2)[C@@H]1C (single isomer, unassigned) [Compound 348] | 100 to 500 | 50 to 100 |
